Results reported in patent US10239881B2, “RIPK2 inhibitors and method of treating cancer with same” (University Health Network, priority 2014, dated 2019).

Assays:
human RIPK2 kinase = human RIPK2 kinase (Homo sapiens (Human), UniProt O43353); experiment: RIPK2 inhibition assay (indirect ELISA); assay type: biochemical; details: His-RIPK2 0.6 nM, 6 μM ATP; read-out: RIPK2 IC50 range
Description: Active RIPK2 was purchased from Life Technologies as His-tagged of catalityc domain (amin acids 1-299) of human RIPK2 kinase expressed in insect cells. Amino terminal 6 histidine, sumo tagged human TTK (residues 1-275) was expressed in E. coli, and purified to >95% homogeneity by Ni^2+ agarose, gel filtration, and ion exchange chromatography.
RIPK2 activity was measured using an indirect ELISA detection system. His—RIPK2 (0.6 nM) was incubated in the presence of 6 μM ATP (Sigma cat # A7699), 20 mM Hepes, pH 7.5, 1 mM EGTA, 2.5 mM MgCl2, 2.5 mM MnCl2 and 0.01% Triton X-100 in a 96 well microtitre plate pre-coated with amino terminal 6 histidine, sumo tagged TTK (amino acid residues 1-275). The reaction was allowed to proceed for 30 minutes, followed by 5 washes of the plate with Wash Buffer (phosphate buffered saline supplemented with 0.2% Tween 20), and incubation for 30 minutes with a 1:3000 dilution of primary antibody (Cell Signaling cat #9381). The plate was washed 5 times with Wash Buffer, incubated for 30 minutes in the presence of secondary antibody coupled to horse radish peroxidase (BioRad cat #1721019, 1:3000 concentration), washed an additional 5 times with Wash Buffer, and incubated in the presence of TMB substrate (Sigma cat # T0440). The colorimetric reaction was allowed to continue for 5 minutes, followed by addition of stop solution (0.5 N H2SO4), and quantified by detection at 450 nm with either a monoChromatic or filter based plate reader (Molecular Devices M5 or Beckman DTX880, respectively).
Compound inhibition was determined at either a fixed concentration (10 μM) or at a variable inhibitor concentration (typically 50 μM to 0.1 μM in a 10 point dose response titration). Compounds were pre-incubated in the presence of enzyme for 15 minutes prior to addition of ATP and the activity remaining quantified using the above described activity assay. The % Inhibition of a compound was determined using the following formula; % Inhibition=100×(1−(experimental value−background value)/(high activity control−background value)). The IC50 value was determined using a non-linear 4 point logistic curve fit (XLfit4, IDBS) with the formula; (A+(B/(1+((x/C)^D)))), where A=background value, B=range, C=inflection point, D=curve fit parameter.

HT-29 colon cancer cells = experiment: Sulforhodamine B cell growth inhibition assay; assay type: cell-based; details: Homo sapiens, HT-29, 120 h; 5 days, SRB; read-out: Colon GI50 range HT29
Description: (§1) Breast cancer cells (MDA-MB-231 and MDA-MB-468), colon cancer cells (HCT116 and HT-29) and ovarian cancer cells (SKOV-3 and OVCAR-3) were seeded (1000 to 4000 in 80 μL per well depending on the cell growth rate) into 96 well plates 24 hours before compound overlay. Compounds were prepared as 10 mM stock solutions in 100% DMSO which were diluted with DMEM (Dulbecco's Modified Eagle's Medium) cell growth Medium (Invitrogen, Burlington, ON, Canada) containing 10% FBS (Fetal Bovine Serum) to concentrations ranging from 50 nM to 250 μM. Aliquots (20 μL) from each concentration were overlaid to 80 μL of the pre-seeded cells in the 96 well plates to make final concentrations of 10 nM to 50 μM. The cells were cultured for 5 days before the Sulforhodamine B assay (SRB) was performed to determine the compound's cell growth inhibition activity.
(§2) The cells are fixed in situ by gently aspirating off the culture media and adding 50 μL ice cold 10% trichloroacetic acid per well and incubate at 4° C. for 30-60 min. The plates are washed with H2O five times and allowed to air dry for 5 min. Addition of 50 μL 0.4% (w/v) SRB solution in 1% (v/v) acetic acid to each well and incubation for 30 min at rt completes the staining reaction. Following staining, plates are washed four times with 1% acetic acid to remove unbound dye and then allowed to air dry for 5 min. The stain is solubilized with 100 μL of 10 mM Tris pH 10.5 per well. Absorbance is read at 570 nm. The percentage (%) of relative growth inhibition was calculated by comparing to DMSO treated only cells (100%). GI50's were determined for compounds with cytotoxic activity. The GI50 was calculated using GraphPad PRISM software (GraphPad Software, Inc., San Diego, Calif., USA). GI50 (growth inhibition) is the compound concentration that causes 50% inhibition of cell growth.
(§3) In Table 2 lists GI50 value ranges for compound examples against breast cancer cell lines (MDA-MB-231, MDA-MB-468), colon cancer cell lines (HCT116, HT-29) and ovarian cancer cell lines (OVCAR-3, SKOV-3) are given. […] The GI50 ranges are indicated as “A,” “B,” and “C,” for values less than or equal to 1 μM; those greater than 1 μM and less than or equal to 10 μM; and those greater than 10 μM, respectively.

[1] = system: HCT116 colon cancer cells; experiment: Sulforhodamine B cell growth inhibition assay; assay type: cell-based; details: Homo sapiens, HCT-116, 120 h; 5 days, SRB; read-out: Colon GI50 range HCT116
Description: as §1, §2, §3

[2] = system: SKOV-3 ovarian cancer cells; experiment: Sulforhodamine B cell growth inhibition assay; assay type: cell-based; details: Homo sapiens, SK-OV-3, 120 h; 5 days, SRB; read-out: Ovarian GI50 range SKOV-3
Description: as §1, §2, §3

[3] = system: MDA-MB-468 breast cancer cells; experiment: Sulforhodamine B cell growth inhibition assay; assay type: cell-based; details: Homo sapiens, MDA-MB-468, 120 h; 5 days, SRB; read-out: Breast GI50 range MDA-MB-468
Description: as §1, §2, §3

[4] = system: OVCAR-3 ovarian cancer cells; experiment: Sulforhodamine B cell growth inhibition assay; assay type: cell-based; details: Homo sapiens, OVCAR-3, 120 h; 5 days, SRB; read-out: Ovarian GI50 range OVCAR-3
Description: as §1, §2, §3

[5] = system: MDA-MB-231 breast cancer cells; experiment: Sulforhodamine B cell growth inhibition assay; assay type: cell-based; details: Homo sapiens, MDA-MB-231, 120 h; 5 days, SRB; read-out: Breast GI50 range MDA-MB-231
Description: as §1, §2, §3

[6] = system: IL-12-yellow fluorescent protein (YFP) reporter mouse bone marrow dendritic cells; experiment: IL-12-YFP reporter dendritic cells, flow cytometric analysis; assay type: cell-based; details: stimulated 24 hours with LPS or Pam3Cys ± 1 μg/ml MDP
Description: FIGS. 2(A)-(C) are graphs illustrating the effects of compound A3 on cytokine production by dendritic cells.
(§4) IL-12-yellow fluorescent protein (YFP) reporter mouse bone marrow dendritic cells were stimulated for 24 hours with 0.3 ng/ml LPS±1 μg/ml MDP (i.e., NOD2 agonist) in the presence of Example A3 (FIG. 2A). IL-12-yellow fluorescent protein (YFP) reporter mouse bone marrow dendritic cells were stimulated for 24 hours with 0.3 μg/ml Pam3Cys±1 μg/ml MDP (i.e., NOD2 agonist) in the presence of Example A3 (FIG. 2B). […] Data are represented as the mean±SEM of triplicate measurements. Levels of IL-12 p70 (FIG. 2C, left panel) and TNFα (FIG. 2C, right panel) in the cell culture supernatants from A were measured by ELISA techniques with commercially available kits. […] Data are represented as the mean±SEM of triplicate measurements.

TNFα = TNFα in dendritic cell culture supernatants by ELISA; assay type: cell-based, mouse; details: 0.3 ng/ml LPS ± 1 μg/ml MDP, 24 hours
Description: as §4

IL-12 p70 = IL-12 p70 in dendritic cell culture supernatants by ELISA; assay type: cell-based, mouse; details: 0.3 ng/ml LPS ± 1 μg/ml MDP, 24 hours
Description: as §4

[7] = system: mouse bone marrow dendritic cells; experiment: Dendritic cell viability by 7AAD exclusion; assay type: cell-based; details: stimulated 24 hours with LPS or Pam3Cys ± 1 μg/ml MDP
Description: as §4

Sequence of human RIPK2 kinase (O43353 1-299): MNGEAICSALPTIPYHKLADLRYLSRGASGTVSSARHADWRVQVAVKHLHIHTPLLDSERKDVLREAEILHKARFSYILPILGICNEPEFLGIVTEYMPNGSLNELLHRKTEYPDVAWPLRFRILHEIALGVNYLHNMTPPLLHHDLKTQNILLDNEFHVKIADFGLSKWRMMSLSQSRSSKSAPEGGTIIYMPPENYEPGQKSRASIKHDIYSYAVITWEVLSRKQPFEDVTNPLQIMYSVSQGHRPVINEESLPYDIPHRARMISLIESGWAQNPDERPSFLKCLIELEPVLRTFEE

Row | SMILES | IC50 (human RIPK2 kinase) [nM] | GI50 (HT-29 colon cancer cells) [nM] | GI50 [1] [nM] | GI50 [2] [nM] | GI50 [3] [nM] | GI50 [4] [nM] | GI50 [5] [nM] | percentage of YFP positive cells (percentage of IL-12 positive cells) [6] | mean fluorescence intensity YFP (amount of IL-12) ([6]; MDP-dependent) | levels of TNFα in cell culture supernatants (TNFα) | levels of IL-12 p70 in cell culture supernatants (IL-12 p70) | cell viability as assessed by 7AAD exclusion [7]
1 | Fc1ccccc1-c1cc2nc(Nc3cccc(N4CCOCC4)c3)ncc2[nH]1 [Example A13, 6-(2-fluorophenyl)-N-(3-morpholino-phenyl)-5H-pyrrolo[3,2-d]pyrimidin-2-amine] | 100 to 500 | ≤ 1000 | ≤ 1000 | ≤ 1000 | ≤ 1000 | ≤ 1000 | ≤ 1000 | – | – | – | – | –
2 | Cc1ccccc1-c1cc2nc(Nc3cccc(N4CCOCC4)c3)ncc2[nH]1 [Example A3, N-(3-morpholinophenyl)-6-(o-tolyl)-5H-pyrrolo[3,2-d]pyrimidin-2-amine] | ≤ 100 | ≤ 1000 | ≤ 1000 | ≤ 1000 | ≤ 1000 | ≤ 1000 | ≤ 1000 | minimal effect | dose-dependent reduction | dose-dependent reduction | dose-dependent reduction | no measurable effect
3 | Cc1ccccc1-c1cc2nc(Nc3ccc(OC4CCN(C)CC4)cc3)ncc2[nH]1 [Example A2, N-(4-((1-methylpiperidin-4-yl)oxy)phenyl)-6-(o-tolyl)-5H-pyrrolo[3,2-d] pyrimidin-2-amine] | ≤ 100 | 1000 to 10000 | 1000 to 10000 | 1000 to 10000 | 1000 to 10000 | 1000 to 10000 | 1000 to 10000 | – | – | – | – | –
4 | Cc1cccc(C)c1-c1cc2nc(Nc3cccc(N4CCOCC4)c3)ncc2[nH]1 [Example A12, 6-(2,6-dimethylphenyl)-N-(3-morpholinophenyl)-5H-pyrrolo[3,2-d]pyrimidin-2-amine] | ≤ 100 | 1000 to 10000 | 1000 to 10000 | ≤ 1000 | 1000 to 10000 | ≤ 1000 | 1000 to 10000 | – | – | – | – | –
